These are literature values, as cited in patent publication US12590297B2, “Differentiation method” (Koninklijke Nederlandse Akademie Van Wetenschappen, priority 2016, dated 2026).

Some results are limits rather than exact numbers.

One data set addresses T1, glucocorticoid receptor (Homo sapiens, UniProt P04150).
T1 sequence (P04150 1-777): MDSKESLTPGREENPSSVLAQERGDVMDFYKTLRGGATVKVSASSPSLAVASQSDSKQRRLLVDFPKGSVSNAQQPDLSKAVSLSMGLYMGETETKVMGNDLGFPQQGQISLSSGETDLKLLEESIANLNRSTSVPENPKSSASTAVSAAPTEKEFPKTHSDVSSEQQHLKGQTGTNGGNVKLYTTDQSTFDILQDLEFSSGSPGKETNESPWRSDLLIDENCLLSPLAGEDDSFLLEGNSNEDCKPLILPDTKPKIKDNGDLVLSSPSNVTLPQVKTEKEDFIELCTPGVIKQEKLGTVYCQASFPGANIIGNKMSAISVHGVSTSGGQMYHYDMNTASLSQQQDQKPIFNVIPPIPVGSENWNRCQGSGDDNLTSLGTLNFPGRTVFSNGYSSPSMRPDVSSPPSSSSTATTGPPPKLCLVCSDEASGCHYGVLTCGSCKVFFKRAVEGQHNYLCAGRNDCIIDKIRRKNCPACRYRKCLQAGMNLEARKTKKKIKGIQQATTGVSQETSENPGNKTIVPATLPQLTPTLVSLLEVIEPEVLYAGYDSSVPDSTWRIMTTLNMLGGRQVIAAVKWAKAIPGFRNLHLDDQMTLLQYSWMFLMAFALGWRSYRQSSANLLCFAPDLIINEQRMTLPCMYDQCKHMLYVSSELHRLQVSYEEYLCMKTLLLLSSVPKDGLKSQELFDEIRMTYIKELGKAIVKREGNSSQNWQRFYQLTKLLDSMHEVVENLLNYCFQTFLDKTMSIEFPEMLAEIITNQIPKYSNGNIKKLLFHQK
Conditions: in comparison to cortisol; oral dosing; cited from earlier work.

The target of another data set is T2, ALK5 (TGF-βR1) (Homo sapiens, UniProt P36897).
T2 sequence (P36897 34-503): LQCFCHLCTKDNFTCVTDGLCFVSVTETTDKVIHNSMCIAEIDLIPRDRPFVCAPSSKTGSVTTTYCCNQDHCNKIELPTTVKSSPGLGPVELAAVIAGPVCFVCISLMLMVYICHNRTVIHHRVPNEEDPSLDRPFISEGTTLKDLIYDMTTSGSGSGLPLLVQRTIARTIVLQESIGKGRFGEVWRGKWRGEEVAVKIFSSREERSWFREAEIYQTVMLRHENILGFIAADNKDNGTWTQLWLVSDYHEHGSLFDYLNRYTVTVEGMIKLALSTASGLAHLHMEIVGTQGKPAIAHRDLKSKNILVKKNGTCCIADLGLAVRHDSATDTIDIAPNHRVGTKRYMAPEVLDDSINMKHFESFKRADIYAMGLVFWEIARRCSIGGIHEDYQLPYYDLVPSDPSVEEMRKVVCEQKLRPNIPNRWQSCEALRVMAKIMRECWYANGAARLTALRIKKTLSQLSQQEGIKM
Conditions: high concentrations; p38 MAP kinase inhibitor; cited from earlier work.

Take `C[C@]12CCC(=O)C=C1CC[C@@H]1[C@@H]2[C@@H](O)C[C@@]2(C)[C@H]1CC[C@]2(O)C(=O)CO` [Cortisol (hydrocortisone), Cortisol]: the Glucocorticoid potency at glucocorticoid receptor is 1.
Take `C[C@]12C=CC(=O)C=C1CC[C@H]1[C@@H]3C[C@@H](O)[C@](O)(C(=O)CO)[C@@]3(C)C[C@H](O)[C@@]12F` [Triamcinolone]: the Glucocorticoid potency at glucocorticoid receptor is listed as 5.
In the case of `C[C@]12C=CC(=O)C=C1CC[C@@H]1[C@@H]2[C@@H](O)C[C@@]2(C)[C@H]1CC[C@]2(O)C(=O)CO` [Prednisolone], the Glucocorticoid potency at glucocorticoid receptor is on record as 4.
Turning to `C[S+]([O-])c1ccc(-c2nc(-c3ccc(F)cc3)c(-c3ccncc3)[nH]2)cc1` (centres unmarked) [SB-203580], on ALK5 (TGF-βR1), the “concentration at which thought to inhibit ALK5” value was not below 10 µM.
For `C[C@]12CCC(=O)C=C1CC[C@@H]1[C@@H]2C(=O)C[C@@]2(C)[C@H]1CC[C@]2(O)C(=O)CO` [Cortisone], on glucocorticoid receptor, the Glucocorticoid potency is on record as 0.8.
